The text below walks through data of patent US9663513B2, “Pyrimidine PDE10 inhibitors” (Merck Sharp & Dohme Corp., priority 2012, dated 2017).

This experiment concerns the target human PDE10A2 (Homo sapiens (Human), UniProt Q9Y233). Briefly: PDE10 fluorescence polarization (IMAP FP) inhibition assay. In kind it is biochemical. The following applies: human PDE10A2 from transfected AD293 cells; FAM-labeled cAMP 50 nM; apparent inhibition constant; read-out: PDE10A Ki. A digest of the protocol:
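Cytoplasmic lysate of AD293 cells transiently expressing human PDE10A2 (enzyme level giving 20% conversion) incubated with 50 nM FAM-cAMP in pH 7.2 Tris/MgCl2 buffer, 30 min at room temperature. IMAP binding solution added, FP read after ≥1 h; 10-point 3-fold compound titrations fitted to a four-parameter equation.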
Background: In fluorescence polarisation assays a small probe gives low polarisation when free and higher when bound to something large.

Sequence of human PDE10A2 (Q9Y233 267-1055): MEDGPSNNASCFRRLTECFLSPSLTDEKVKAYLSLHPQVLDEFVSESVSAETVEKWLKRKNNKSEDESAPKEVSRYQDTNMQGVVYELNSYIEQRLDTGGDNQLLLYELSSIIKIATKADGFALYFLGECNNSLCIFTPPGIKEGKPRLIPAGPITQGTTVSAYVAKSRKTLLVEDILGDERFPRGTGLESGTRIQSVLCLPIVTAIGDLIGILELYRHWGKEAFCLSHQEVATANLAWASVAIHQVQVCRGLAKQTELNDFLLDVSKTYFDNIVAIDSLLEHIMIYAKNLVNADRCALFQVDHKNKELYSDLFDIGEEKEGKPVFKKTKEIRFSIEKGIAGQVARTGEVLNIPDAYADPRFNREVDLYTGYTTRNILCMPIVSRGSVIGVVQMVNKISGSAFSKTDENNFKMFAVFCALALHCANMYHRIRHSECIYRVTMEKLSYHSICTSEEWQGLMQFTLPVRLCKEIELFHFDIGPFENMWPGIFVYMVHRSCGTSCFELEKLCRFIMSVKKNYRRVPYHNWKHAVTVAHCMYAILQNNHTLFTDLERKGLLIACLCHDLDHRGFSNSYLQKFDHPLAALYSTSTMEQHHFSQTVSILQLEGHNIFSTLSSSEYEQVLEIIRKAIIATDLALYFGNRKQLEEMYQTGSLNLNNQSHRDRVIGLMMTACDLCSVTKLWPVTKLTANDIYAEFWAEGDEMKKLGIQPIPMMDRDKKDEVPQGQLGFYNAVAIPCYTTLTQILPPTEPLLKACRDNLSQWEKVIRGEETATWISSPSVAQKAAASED

On to `Cc1cccc([C@H]2C[C@@H]2COc2nc(C)ncc2-c2ccc(C(C)(C)O)nc2)n1` [Example 176, 2-(5-(2-methyl-4-(((1S,2S)-2-(6-methylpyridin-2-yl)cyclopropyl)methoxy)pyrimidin-5-yl)pyridin-2-yl)propan-2-ol], for which the Ki worked out at 14.8 nM. The same measure for `Cc1ncc(-c2ccc(C(C)(C)O)nc2)c(OC[C@H]2C[C@@H]2c2ccc(C#N)cn2)n1` [Example 182, 6-((1S,2S)-2-((5-(6-(2-hydroxypropan-2-yl)pyridin-3-yl)-2-methylpyrimidin-4-yloxy)methyl)cyclopropyl)nicotinonitrile]: 17.8 nM; for `Cc1ncc(-c2ccc(C(C)(C)O)nc2)c(OC[C@H]2C[C@@H]2c2ccc(C(F)(F)F)cn2)n1` [Example 183, 2-(5-(2-methyl-4-(((1S,2S)-2-(5-(trifluoromethyl)pyridin-2-yl)cyclopropyl)methoxy)pyrimidin-5-yl)pyridin-2-yl)propan-2-ol]: 13.5 nM; for `Cc1ccc([C@H]2C[C@@H]2COc2nc(C)ncc2C2CCC3(CC2)OCCO3)nc1` [Example 184, 2-methyl-4-(((1S,2S)-2-(5-methylpyridin-2-yl)cyclopropyl)methoxy)-5-(1,4-dioxaspiro[4.5]decan-8-yl)pyrimidine]: 2.81 nM. The same measure for `Cc1ccc([C@H]2C[C@@H]2COc2nc(C)ncc2C2CCC(=O)CC2)nc1` [Example 185, 4-(2-methyl-4-(((1S,2S)-2-(5-methylpyridin-2-yl)cyclopropyl)methoxy)pyrimidin-5-yl)cyclohexanone]: 3.73 nM. The same measure for `Cc1cccc([C@H]2C[C@@H]2COc2nc(C)ncc2C2CCC3(CC2)OCCO3)n1` [Example 186, 2-methyl-4-(((1S,2S)-2-(6-methylpyridin-2-yl)cyclopropyl)methoxy)-5-(1,4-dioxaspiro[4.5]decan-8-yl)pyrimidine]: 6.67 nM. `Cc1cccc([C@H]2C[C@@H]2COc2nc(C)ncc2C2CCC(=O)CC2)n1` [Example 187, 4-(2-methyl-4-(((1S,2S)-2-(6-methylpyridin-2-yl)cyclopropyl)methoxy)pyrimidin-5-yl)cyclohexanone]: the Ki amounted to 18.6 nM. The same measure for `COc1ccc([C@H]2C[C@@H]2COc2nc(C)ncc2C2CCC3(CC2)OCCO3)nc1` [Example 188, 4-(((1S,2S)-2-(5-methoxypyridin-2-yl)cyclopropyl)methoxy)-2-methyl-5-(1,4-dioxaspiro[4.5]decan-8-yl)pyrimidine]: 2.84 nM. The same measure for `COc1ccc([C@H]2C[C@@H]2COc2nc(C)ncc2C2CCC(=O)CC2)nc1` [Example 189, 4-(4-(((1S,2S)-2-(5-methoxypyridin-2-yl)cyclopropyl)methoxy)-2-methylpyrimidin-5-yl)cyclohexanone]: 3.75 nM; for `Cc1ncc(C2CCC3(CC2)OCCO3)c(OC[C@H]2C[C@@H]2c2ccc3ccccc3n2)n1` [Example 190, 2-((1S,2S)-2-((2-methyl-5-(1,4-dioxaspiro[4.5]decan-8-yl)pyrimidin-4-yloxy)methyl)cyclopropyl)quinoline]: 0.06 nM. The same measure for `Cc1ncc(C2CCC(=O)CC2)c(OC[C@H]2C[C@@H]2c2ccc3ccccc3n2)n1` [Example 191, 4-(2-methyl-4-(((1S,2S)-2-(quinolin-2-yl)cyclopropyl)methoxy)pyrimidin-5-yl)cyclohexanone]: 0.06 nM; for `Cc1ncc([C@H]2CC[C@H](O)CC2)c(OC[C@H]2C[C@H]2c2ccc3ccccc3n2)n1` [Example 192, Trans-4-(2-methyl-4-(((1S,2R)-2-(quinolin-2-yl)cyclopropyl)methoxy)pyrimidin-5-yl)cyclohexanol]: 0.01 nM; for `Cc1ncc([C@H]2CC[C@@H](O)CC2)c(OC[C@H]2C[C@H]2c2ccc3ccccc3n2)n1` [Example 193, (1R,4s)-4-(2-methyl-4-(((1S,2R)-2-(quinolin-2-yl)cyclopropyl)methoxy)pyrimidin-5-yl)cyclohexanol]: 0.07 nM. For the compound `CCc1ccc([C@@H]2C[C@@H]2COc2nc(C)ncc2C2CCC3(CC2)OCCO3)nc1` [Example 194, 4-(((1S,2R)-2-(5-ethylpyridin-2-yl)cyclopropyl)methoxy)-2-methyl-5-(1,4-dioxaspiro[4.5]decan-8-yl)pyrimidine], the Ki is 2.98 nM. The same measure for `CCc1ccc([C@@H]2C[C@@H]2COc2nc(C)ncc2C2CCC(=O)CC2)nc1` [Example 195, 4-(4-(((1S,2R)-2-(5-ethylpyridin-2-yl)cyclopropyl)methoxy)-2-methylpyrimidin-5-yl)cyclohexanone]: 3.48 nM; for `CCc1ccc([C@@H]2C[C@@H]2COc2nc(C)ncc2[C@H]2CC[C@H](O)CC2)nc1` [Example 196, Trans-4-(4-(((1S,2R)-2-(5-ethylpyridin-2-yl)cyclopropyl)methoxy)-2-methylpyrimidin-5-yl)cyclohexanol]: 0.5 nM; for `CCc1ccc([C@@H]2C[C@@H]2COc2nc(C)ncc2[C@H]2CC[C@@H](O)CC2)nc1` [Example 197, (1R,4s)-4-(4-(((1S,2R)-2-(5-ethylpyridin-2-yl)cyclopropyl)methoxy)-2-methylpyrimidin-5-yl)cyclohexanol]: 1.73 nM.

`Cc1ncc(C2CCC3(CC2)OCCO3)c(OC[C@H]2C[C@H]2c2ccccn2)n1` [Example 198, 2-methyl-4-(((1S,2R)-2-(pyridin-2-yl)cyclopropyl)methoxy)-5-(1,4-dioxaspiro[4.5]decan-8-yl)pyrimidine]: the Ki was determined as 27.6 nM. The same measure for `Cc1ncc([C@H]2CC[C@H](O)CC2)c(OC[C@H]2C[C@@H]2c2ccccn2)n1` [Example 199, Trans-4-(2-methyl-4-(((1S,2S)-2-(pyridin-2-yl)cyclopropyl)methoxy)pyrimidin-5-yl)cyclohexanol]: 4.79 nM; for `COc1cccc([C@H]2C[C@@H]2COc2nc(C)ncc2C2CCC3(CC2)OCCO3)n1` [Example 200, 4-(((1S,2S)-2-(6-methoxypyridin-2-yl)cyclopropyl)methoxy)-2-methyl-5-(1,4-dioxaspiro[4.5]decan-8-yl)pyrimidine]: 1.61 nM; for `Cc1ccnc([C@H]2C[C@@H]2COc2nc(C)ncc2C2CCC3(CC2)OCCO3)c1` [Example 201, 2-methyl-4-(((1S,2S)-2-(4-methylpyridin-2-yl)cyclopropyl)methoxy)-5-(1,4-dioxaspiro[4.5]decan-8-yl)pyrimidine]: 17.1 nM. The same measure for `COc1cccc([C@H]2C[C@@H]2COc2nc(C)ncc2C2CCC(=O)CC2)n1` [Example 202, 4-(4-(((1S,2S)-2-(6-methoxypyridin-2-yl)cyclopropyl)methoxy)-2-methylpyrimidin-5-yl)cyclohexanone]: 2.96 nM. The same measure for `Cc1ccnc([C@H]2C[C@@H]2COc2nc(C)ncc2C2CCC(=O)CC2)c1` [Example 203, 4-(2-methyl-4-(((1S,2S)-2-(4-methylpyridin-2-yl)cyclopropyl)methoxy)pyrimidin-5-yl)cyclohexanone]: 30.8 nM; for `Cc1ncc(C2CCC3(CC2)OCCO3)c(OC[C@@H](C)Cc2ccc3ccccc3n2)n1` [Example 204, 2-((2S)-2-methyl-3-(2-methyl-5-(1,4-dioxaspiro[4.5]decan-8-yl)pyrimidin-4 yloxy)propyl)quinoline]: 0.73 nM; for `Cc1ncc([C@@H]2CCC3(C[C@H]2O)OCCO3)c(OC[C@H]2C[C@@H]2c2ccc3ccccc3n2)n1` [Example 205, (7R,8S)-8-(2-methyl-4-(((1S,2S)-2-(quinolin-2-yl)cyclopropyl)methoxy)pyrimidin-5-yl)-1,4-dioxaspiro[4.5]decan-7-ol]: 7.08 nM. For `Cc1ncc(C2(O)CCC3(CC2)OCCO3)c(OC[C@H]2C[C@@H]2c2ccc3ccccc3n2)n1` [Example 206, 8-(2-methyl-4-(((1S,2S)-2-(quinolin-2-yl)cyclopropyl)methoxy)pyrimidin-5-yl)-1,4-dioxaspiro[4.5]decan-8-ol], the Ki was found to be 6.28 nM. The same measure for `COc1ccc([C@H]2C[C@@H]2COc2nc(C)ncc2C2CCCC(=O)C2)nc1` (stereo partly drawn) [Example 207, 3-(4-(((1S,2S)-2-(5-Methoxypyridin-2-yl)cyclopropyl)methoxy)-2-methylpyrimidin-5-yl)cyclohexanone]: 0.48 nM. The same measure for `Cc1ccc([C@H]2C[C@@H]2COc2nc(C)ncc2C2CCCCC2)nc1` [Example 208, 5-Cyclohexyl-2-methyl-4-(((1S,2S)-2-(5-methylpyridin-2-yl)cyclopropyl)methoxy)pyrimidine]: 2.28 nM; for `Cc1ccc([C@H]2C[C@@H]2COc2nc(C)ncc2C2CCC(F)(F)CC2)nc1` [Example 209, 5-(4,4-Difluorocyclohexyl)-2-methyl-4-(((1S,2S)-2-(5-methylpyridin-2-yl)cyclopropyl)methoxy)pyrimidine]: 12.1 nM; for `Cc1ccc([C@H]2C[C@@H]2COc2nc(C)ncc2[C@]2(F)CC[C@@H](O)CC2)nc1` [Example 210, (trans)-4-Fluoro-4-(2-methyl-4-(((1S,2S)-2-(5-methylpyridin-2-yl)cyclopropyl)methoxy)pyrimidin-5-yl)cyclohexanol]: 7.85 nM. Turning to `COc1ccc([C@H]2C[C@@H]2COc2nc(C)ncc2C2(F)CCCCC2)nc1` [Example 211, 5-(1-fluorocyclohexyl)-4-(((1S,2S)-2-(5-methoxypyridin-2-yl)cyclopropyl)methoxy)-2-methylpyrimidine], the Ki amounted to 19.4 nM. Consider `Cc1ccc([C@H]2C[C@@H]2COc2nc(C)ncc2[C@H]2CC[C@@](C)(O)CC2)nc1` [Example 212, (cis)1-Methyl-4-(2-methyl-4-(((1S,2S)-2-(5-methylpyridin-2-yl)cyclopropyl)methoxy)pyrimidin-5-yl)cyclohexanol], for which the Ki was 12.4 nM. The same measure for `Cc1ccc([C@H]2C[C@@H]2COc2nc(C)ncc2[C@H]2CC[C@](C)(O)CC2)nc1` [Example 213, (trans)1-Methyl-4-(2-methyl-4-(((1S,2S)-2-(5-methylpyridin-2-yl)cyclopropyl)methoxy)pyrimidin-5-yl)cyclohexanol]: 6.86 nM.
